{"source": "patent US12655462B2", "about": "“PLK1 target phosphorylation status and treatment of cancer with PLK1 inhibitors” (Cardiff Oncology, Inc., priority 2018, dated 2026)", "key": {"[1]": {"tested_on": "disseminated model of AML", "settings": "combination therapy with cytarabine; cited from earlier work"}, "PLK1": {"target": "PLK1 (Homo sapiens, UniProt P53350)", "sequence (P53350 whole entry)": "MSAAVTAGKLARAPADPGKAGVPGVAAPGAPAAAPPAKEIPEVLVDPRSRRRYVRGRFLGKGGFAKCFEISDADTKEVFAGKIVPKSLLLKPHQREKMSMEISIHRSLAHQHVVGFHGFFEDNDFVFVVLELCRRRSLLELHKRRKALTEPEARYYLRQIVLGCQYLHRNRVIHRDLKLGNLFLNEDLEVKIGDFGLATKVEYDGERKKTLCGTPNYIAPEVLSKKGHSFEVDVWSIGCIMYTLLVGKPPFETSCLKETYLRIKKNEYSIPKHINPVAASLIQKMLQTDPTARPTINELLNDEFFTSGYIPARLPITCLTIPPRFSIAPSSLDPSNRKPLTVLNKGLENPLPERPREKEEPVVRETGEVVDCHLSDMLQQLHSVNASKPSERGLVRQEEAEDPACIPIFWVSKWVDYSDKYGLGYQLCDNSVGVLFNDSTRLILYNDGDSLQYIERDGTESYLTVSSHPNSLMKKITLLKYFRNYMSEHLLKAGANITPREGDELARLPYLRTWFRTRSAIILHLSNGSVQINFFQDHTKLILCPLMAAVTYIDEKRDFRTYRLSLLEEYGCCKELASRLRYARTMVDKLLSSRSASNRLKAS", "settings": "versus previous PLK inhibitors; cited from earlier work"}, "[2]": {"target": "T1, PLK1 phosphorylation of TCTP in MV4-11 and HL-60 (Homo sapiens, UniProt P53350)", "T1 construct": "endogenous in cells; host or cells: MV4-11 and HL-60 AML cell lines", "T1 sequence (P53350 whole entry)": "as above", "test": "pTCTP in AML cell lines MV4-11 and HL-60, western blot (FIG. 2C)", "format": "cell-based", "settings": "MV4-11 and HL-60, 15 minutes; onvansertib 0.1 or 0.5 μM, cytarabine 10 or 100 nM, decitabine 0.2 or 1 μM", "description": "(§1) Protein extracts were prepared from PBMC and cell lines using M-PER buffer (ThermoFisher) with 150 mM NaCl and 1× protease and phosphatase inhibitors cocktails (ThermoFisher). Protein concentration was measured with the Pierce BCA protein assay kit (ThermoFisher).\nWestern blots were performed as Simple Western™ assays using the Wes system (ProteinSimple), a combination of capillary electrophoresis and immunodetection techniques, following the manufacturer's protocols. Briefly, extracts with equal protein concentration were mixed with 0.1× sample buffer and 5× fluorescent master mix. Denatured protein samples, biotinylated ladder (ProteinSimple), primary antibodies, horseradish peroxidase (HRP)-conjugated secondary antibody (ProteinSimple), chemiluminescence substrate and wash buffer were dispensed into respective wells of the assay plate and placed in Wes equipment. Primary antibodies were purchased from Cell Signaling Technology: phospho-TCTP-Ser46 (#5251) and TCTP (#5128), and used at a concentration of 1:50. Quantitative analysis was performed using Compass software (ProteinSimple). […]\nAML cell lines MV4-11 and HL-60 were treated for 15 minutes with onvansertib (PCM-075) (0.1 or 0.5 μM), cytarabine (10 or 100 nM) or decitabine (0.2 or 1 μM). Proteins were then extracted from the cells and assessed for pTCTP."}, "[3]": {"settings": "cited from earlier work; for half-life: oral administration"}, "[4]": {"tested_on": "advanced/metastatic solid tumors", "settings": "adult subjects; cited from earlier work"}, "cancer cell lines": {"tested_on": "cancer cell lines", "settings": "cited from earlier work"}, "[5]": {"target": "T2, PLK1 phosphorylation of TCTP (Homo sapiens, UniProt P53350)", "T2 sequence (P53350 whole entry)": "as above", "test": "Inhibition of pTCTP in vitro, western blot (FIG. 2B)"}, "[6]": {"tested_on": "HT29 human colon adenocarcinoma xenografts", "settings": "combination with irinotecan, compared to each agent alone; cited from earlier work"}, "xenograft tumor": {"tested_on": "xenograft tumor", "settings": "mice, oral administration, well tolerated doses; cited from earlier work"}, "[7]": {"tested_on": "acute myeloid leukemia (AML)", "test": "Clinical response of AML patients, trial NCT03303339 (leukemic cells in blood and bone marrow)", "format": "in vivo, human", "excerpt": "Patient data provided herein is from patients in clinical trial NCT03303339, Onvansertib in Combination With Either Low-dose Cytarabine (LDAC) or Decitabine in Adult Patients With Acute Myeloid Leukemia (AML) (ClinicalTrials.gov).\nResponders were defined as patients showing a decrease in circulating and bone marrow blasts during treatment."}, "[8]": {"tested_on": "cell lines, both from solid as well as hematologic tumors", "settings": "large number of cell lines, solid and hematologic tumors; cited from earlier work"}, "[9]": {"target": "T2, PLK1 phosphorylation of TCTP", "test": "pTCTP (Ser46) in patient blood PBMC before and 3 hours after onvansertib", "format": "in vivo", "set-up": "Protein extracts were prepared from PBMC and cell lines using M-PER buffer; from tissue; host or cells: peripheral blood mononuclear cells from AML patients' blood", "settings": "for decrease in pTCTP in patient blood: three patients, as early as three hours", "description": "Determination of phosphorylation of serine 46 of TCTP in blood was as follows. Peripheral blood mononuclear cells (PBMC) were isolated from a Cellsave blood tube (Menarini Silicon Biosystems) using Leucosep centrifuge tubes (VWR) and Histopaque-1077 (Sigma) according to the manufacturer's recommendations.\nas §1\nWestern blots were performed as Simple Western™ assays using the Wes system (ProteinSimple), a combination of capillary electrophoresis and immunodetection techniques, following the manufacturer's protocols. Briefly, extracts with equal protein concentration were mixed with 0.1× sample buffer and 5× fluorescent master mix. Denatured protein samples, biotinylated ladder (ProteinSimple), primary antibodies, horseradish peroxidase (HRP)-conjugated secondary antibody (ProteinSimple), chemiluminescence substrate and wash buffer were dispensed into respective wells of the assay plate and placed in Wes equipment. Primary antibodies were purchased from Cell Signaling Technology: phospho-TCTP-Ser46 (#5251) and TCTP (#5128), and used at a concentration of 1:50. Quantitative analysis was performed using Compass software (ProteinSimple). Signal intensity (area) of pTCTP was normalized to the peak area of TCTP and reported as % pTCTP.\nPLK1 inhibition in patients was assessed in blood taken 3-hours following administration of onvansertib at peak concentration (Cmax).\nBlood samples were collected before, and 3 hours after, onvansertib treatment from patients enrolled in the trial described in Example 1. The onvansertib treatments were 12, 18, 27, or 40 mg/m^2. pTCTP and TCTP were assessed by Western-Blot and % pTCTP (pTCTP/TCTP) was quantified.\nIn these studies, biomarker positivity was defined as ≥50% decrease in % pTCTP from T=0 to T=3h."}, "[10]": {"settings": "combination with LDAC or decitabine"}}, "note": "Where two headings read alike, the source gives them in different places."}
{"smiles": "CN1CCN(c2ccc(OC(F)(F)F)c(Nc3ncc4c(n3)-c3c(c(C(N)=O)nn3CCO)CC4)c2)CC1", "note": "[onvansertib, 1-(2-hydroxyethyl)-8-{[5-(4-methylpiperazin-1-yl)-2-(trifluoromethoxy)phenyl]amino}-4,5-dihydro-1H-pyrazolo[4,3-h] quinazoline-3-carboxamide]", "values": [{"measurement": "survival of animals", "setting": "[1]", "result": "prolonged survival"}, {"measurement": "selectivity for PLK1", "setting": "PLK1", "result": "high selectivity for PLK1 only"}, {"measurement": "inhibition of pTCTP", "setting": "[2]", "result": "inhibited pTCTP"}, {"measurement": "half-life", "setting": "[3]", "result": "about 24 hours"}, {"measurement": "half-life", "setting": "[3]; listed as Onvansertib", "result": "~24", "unit": "h"}, {"measurement": "oral bioavailability", "setting": "[3]; rodent and nonrodent species", "result": "good oral bioavailability"}, {"measurement": "evaluable patients with stable disease", "setting": "[4]", "result": "5 of 16"}, {"measurement": "recommended phase 2 dose", "setting": "[4]", "result": 24, "unit": "mg/m^2"}, {"measurement": "mitotic cell-cycle arrest followed by apoptosis", "setting": "cancer cell lines", "result": "potently causes a mitotic cell-cycle arrest followed by apoptosis"}, {"measurement": "inhibition of pTCTP in vitro", "setting": "[5]", "result": "inhibits pTCTP in vitro, in a dose-dependent manner"}, {"measurement": "tumor regression", "setting": "[6]", "result": "enhanced tumor regression"}, {"measurement": "xenograft tumor growth", "setting": "xenograft tumor", "result": "inhibits xenograft tumor growth"}, {"measurement": "biomarker positive patients with a decrease in BM blasts≥50%", "setting": "[7]; [10]", "result": "six out of the nine"}, {"measurement": "patients with complete response [CR] or CR with incomplete hematological recovery [CRi]", "setting": "[7]; [10]", "result": "Four"}, {"measurement": "patients exhibiting a response (decrease in leukemic cells in blood and bone marrow)", "setting": "[7]; in combination with low-dose cytarabine (LDAC) or decitabine", "result": "Three of 6"}, {"measurement": "leukemic cells in bone marrow, decrease", "setting": "[7]; patient 07-009, combination with decitabine", "result": "96% to 55%"}, {"measurement": "leukemic cells in bone marrow, decrease", "setting": "[7]; patient 07-011, combination with decitabine", "result": "55% to 15%"}, {"measurement": "potency in proliferation assays", "setting": "[8]", "result": "low nanomolar activity"}, {"measurement": "decrease of pTCTP in cells of non-responders", "setting": "[9]; 5 non-responders, higher dose 18 mg/m^2", "result": "did not show a decrease of pTCTP"}, {"measurement": "decrease in pTCTP", "setting": "[9]; the one biomarker negative patient with objective response", "result": 40, "unit": "%"}, {"measurement": "decrease in pTCTP in patient blood", "setting": "[9]; onvansertib and LDAC", "result": "only the responder showed a decrease in pTCTP"}, {"measurement": "decrease in pTCTP in patient blood", "setting": "[9]; onvansertib and decitabine", "result": "only the two responders showed a decrease in pTCTP"}]}
{"smiles": "Nc1ccn([C@@H]2O[C@H](CO)[C@@H](O)[C@@H]2O)c(=O)n1", "note": "[cytarabine]", "values": [{"measurement": "inhibition of pTCTP", "setting": "[2]", "result": "but not cytarabine or decitabine, inhibited pTCTP"}]}
